From patent US10744127B2, “MDR-reversing 8-hydroxy-quinoline derivatives” (MAGYAR TUDOMÁNYOS AKADÉMIA TERMÉSZETTUDOMÁNYI KUTATÓKÖZPONT, priority 2016, dated 2020)
Where two headings read alike, the source gives them in different places.

Experiments:
[1] = test system: A431 and A431-B1 cell lines; experiment: Selective toxicity in A431 and A431-B1 cell lines; assay type: cell-based, human; details: A431 versus P-gp-transfected A431-B1
Description: (§1) Cell survival was measured by the PrestoBlue® Cell Viability Reagent (Life Technologies, USA). Cells were seeded in 100 μl medium at a density of 5000 cells/well in 96-well plates; the serially diluted drug was added the following day. Cells were then incubated for 72 hours at 37° C. in 5% CO2; the drug containing medium was removed, and the PrestoBlue® reagent was added according to the manufacturer's instructions. Fluorescence of the cells was measured by a Perkin Elmer EnSpire multimode plate reader or Perkin Elmer Victor X3 microplate reader. Data were background corrected and normalized to untreated cells. Curves were fitted with the help of Prism software using the sigmoidal dose-response model. Curve fit statistics were used to determine IC50 values. Differences between the IC50 values of the respective cell lines were analyzed by two-sided […] unpaired Student's t test and results were considered statistically significant at a P value of <0.05 (*) or 0.01 (**).
(§2) Data on selective toxicity (expressed as Selectivity Ratio, SR) in two MDR models engineered by retroviral transfection of P-glycoprotein (A431/A431-B1 and MDCK II/MDCK II B1 cell lines) are presented in Table 3 and Table 4.
(§3) A431 is a human epidermoid carcinoma cell line. Its derivative, the A431-B1 cell line expresses P-gp due to retroviral transfection of the mdr1 gene Türk, D. et al (Türk, D. et al., 2009). MDCK II is a canine kidney cell line. MDCK II B1 was created by inserting the mdr1 gene with transposons [Pape V F S et al. 2015] Both cell express P-gp stably, and show a stable MDR phenotype. Culture conditions were identical as in the case of MES-SA cells.

[2] = test system: MES-SA and MES-SA/Dx5 cells; experiment: Selective toxicity in the presence of the P-gp inhibitor tariquidar; assay type: cell-based, human; details: for SR (TQ): selectivity ratio in the presence of tariquidar (1 μM)
Description: In the presence of tariquidar (an inhibitor of P-gp function), the toxicity of the compounds selectively diminishes in multidrug-resistant MES-SA/Dx5 cells, while the toxicity is unchanged against parental MESSA cells, which is reflected by a decrease in the selectivity ratio (SR (TQ)).
To investigate the contribution of P-glycoprotein to the cytotoxic effect of a compound, cell survival was measured in the presence of the P-glycoprotein inhibitor tariquidar (1 μM). Tariquidar (CAS 206873-63-4) can be obtained e.g. from Selleck, Houston, USA.

[3] = test system: MDCK II and MDCK II B1 cell lines; experiment: Selective toxicity towards MDCK II and MDCK II B1 cell lines; assay type: cell-based, canine; details: MDCK II versus MDCK II B1
Description: as §1, §2, §3

[4] = test system: MES-SA/Dx5 cell line; experiment: Cytotoxicity, PrestoBlue cell viability assay, MES-SA/Dx5; assay type: cell-based; details: Homo sapiens
Description: (§4) The human uterine sarcoma cell line MES-SA and its doxorubicin resistant counterpart MES-SA/Dx5 were obtained from ATCC (MES-SA: No. CRL-1976™, MES-SA-Dx5: No. CRL-1977™). MES-SA/Dx5 cells express high levels of P-gp, and therefore are multidrug resistant (MDR). Cells were cultured in DMEM supplemented with 10% FBS, 5 mmol/L glutamine and 50 unit/mL penicillin and streptomycin (Life Technologies).
as §1

[5] = test system: P-gp-expressing MES-SA/Dx5 cells; experiment: P-gp switch assay (Calcein AM); assay type: cell-based, human; details: for Fraction of P-gp-negative cells (P3) in the population / Fraction of P-gp-positive cells (P4) in the population: MES-SA/Dx5, single dose at IC20 (killing 80% of the cells), surviving population at 80% confluence, Calcein AM
Description: One million P-gp-expressing MES-SA/Dx5 cells were plated in a T25 cell culture flask. After 24 hours the compound of interest was added directly to the cells at a concentration corresponding to the IC20 value (killing 80% of the cells). After 5 days the culture media was removed, the cells were washed with PBS and the culture medium was exchanged. Cells were monitored daily and the recovery was recorded. The medium was changed every 5 days until the confluence of the cells reached 80%. At 80% confluence the cells were removed by gentle trypsinization, counted by an automated cell counter and stained with Calcein AM, a cellular dye able to detect the function of P-gp (Homolya 1993). P-gp-positivity was evaluated based on the ability of P-gp-expressing cells to extrude Calcein AM.

[6] = test system: MES-SA and multidrug-resistant MES-SA/Dx5 cell line; experiment: Selective toxicity (ratio of IC50 in MES-SA to IC50 in MES-SA/Dx5) and activity index; assay type: cell-based, human
From the text: Compounds having P-gp potentiated MDR-selective activity can be characterized by their inhibitory concentration (IC) with regard to a specific cancer cell line. Usually the IC value is given at a certain percentage ratio of non-inhibited molecules or surviving cells. For example an IC20 value of a compound on a cell line means that at this inhibitory concentration of the compound 80% of the cells are killed whereas 20% of the cells are still viable. A further characteristic of MDR-selective drugs is the selectivity ratio (SR), which is the ratio of the IC value measured in a non-multidrug resistant cell line to (i.e. divided by) the IC value measured in the corresponding transformed, multidrug-resistant cell line. The inverse value, the resistance ratio (RR) is calculated as the ratio of a compound's IC value against a multidrug resistant cell line divided by the parallel IC value of the same compound against a control non-multidrug resistant cell line. The Activity Index (AI) is calculated here as the ratio of the compound's selectivity ratio (SR) and the compound's IC50 value against the resistant cell. The AI reflects the level of simultaneous toxicity and selectivity towards multidrug-resistant cancer cells.
as §4, §1
Selectivity towards multidrug-resistant cells is expressed as the ratio of the IC50 value measured in the parental MES-SA and multidrug-resistant MES-SA/Dx5 cell line (Selectivity Ratio, SR).
A novel characteristic of the compounds presented in this invention is that they exert their selective cytotoxicity at low IC50 values. Simultaneous toxicity and selectivity towards multidrug-resistant cancer cells is reflected by the Activity Index (AI) of the compounds, which is the ratio of the selectivity ratio (SR) and the IC50 value on the resistant cell line.

[7] = test system: MES-SA cell line; experiment: Cytotoxicity, PrestoBlue cell viability assay, parental MES-SA; assay type: cell-based; details: Homo sapiens; parental MES-SA cell line (Table 2a)
Description: as §4, §1

[8] = test system: MES-SA/Dx5 cells; experiment: Sensitivity of MES-SA/Dx5 cells to doxorubicin after a single treatment; assay type: cell-based, human; details: after treatment with a single dose (FIG. 3)
From the text: The above treatment with compounds of the general Formula I results in a new, stable phenotype, with the complete resensitization of cells to conventional chemotherapy consisting of P-glycoprotein substrates such as doxorubicin (FIG. 3).
Curves show the sensitivity of MES-SA/Dx5 cells (P-gp overexpressing cell line established from MES-SA) to doxorubicin before and after treatment with a single dose of a state of the art compound (NSC693872) and two compounds relating to this invention (Example compounds No. 9 and No. 17). The sensitivity of MES-SA cells is shown as a reference (P-gp-negative parental cell line). […] (Values indicate the IC50 values (μM) derived from the cytotoxicity curves).

[9] = WO2010138686 and Türk et al. 2009; cited from earlier work
[10] = multidrug-resistant MES-SA/Dx5 cell line (Table 2a), read-out: IC50 (nM) in MES-SA/Dx5 cell line
[11] = MES-SA / MES-SA/Dx5, without tariquidar (Table 5)
[12] = MES-SA/Dx5 (Table 2b), read-out: IC50 (μM) Dx5
[13] = Mes-sa/Dx5 cell line, PrestoBlue assay, 72 hours (Table 1), read-out: IC50

SMILES | Selectivity Ratio (SR) (A431/A431-B1) [1] | SR (TQ) [2] | Selectivity Ratio (SR) (MDCK II/MDCK II B1) [3] | IC50 [4, 10] [nM] | Fraction of P-gp-negative cells (P3) in the population [5] [%] | Fraction of P-gp-positive cells (P4) in the population [5] [%] | SR [6, 11] | IC50 [7] [nM] | melting point [°C] | Resensitization of MES-SA/Dx5 cells to doxorubicin [8] | IC50 [4, 12] [nM] | IC50 [4, 13] [nM] | SR ([6]; MES-SA / MES-SA/Dx5 (Table 2b)) | Selective toxicity in the presence of P-gp inhibitors ([2]; tariquidar) | Loss of P-gp expression in MES-SA/Dx5 cells ([5]; single treatment (FIG. 1, Table 6)) | selectivity [9]
C/C(=N\Nc1ccc2ccc(CN3CCCCC3)c(O)c2n1)c1ccccn1 [Example 3, (E/Z)-7-(Piperidin-1ylmethyl)-2-(2-(1-(pyridin-2-yl)ethylidene)hydrazinyl)quinolin-8-ol] | 14.4 | 1.5 | 9.5 | 727 | 88.6 | 11.40 | 16.2 | 11300 | 69 to 71 | – | – | – | – | – | – | –
Oc1c(C2NCCc3sccc32)cc(Cl)c2cccnc12 (stereo not drawn) [Example 17, 5-Chloro-7-(4,5,6,7-tetrahydrothieno[3,2-c]pyridin-4-yl)quinolin-8-ol] | 12.6 | – | – | – | – | – | – | – | – | sufficient to resensitize MES-SA/Dx5 cells to doxorubicin | – | – | – | – | – | –
COc1ccc(CNCc2cc(Br)c3cccnc3c2O)cc1OC [Example 25, 5-Bromo-7-(((3,4-dimethoxybenzyl)amino)methyl)quinolin-8-ol] | – | 1.6 | 9.4 | 131 | 92.30 | 7.70 | 22.3 | 2910 | 133 to 136 | – | 130 | 131 | 22.3 | – | – | –
COc1ccc(CNCc2cc(Cl)c3cccnc3c2O)c(OC)c1 [Example 26, 5-Chloro-7-(((2,4-dimethoxybenzyl)amino)methyl)quinolin-8-ol] | 11.2 | 1.7 | 8.0 | 130 | – | – | 17.6 | 2260 | 136 to 139 | – | 130 | 133 | 17.6 | – | – | –
COc1ccc(CNCc2cc([N+](=O)[O-])c3cccnc3c2O)cc1 [Example 27, 7-(((4-Methoxybenzyl)amino)methyl)-5-nitroquinolin-8-ol] | 12.6 | 1.6 | 8.0 | 310 | – | – | 19.9 | 6090 | 191 to 193 | – | 310 | – | 19.9 | – | – | –
COc1ccc(CNCc2cc([N+](=O)[O-])c3cccnc3c2O)cc1OC [Example 30, 7-(((3,4-Dimethoxybenzyl)amino)methyl)-5-nitroquinolin-8-ol] | 11.5 | 1.3 | 16.1 | 1220 | – | – | 19.3 | 23800 | 204 to 206 | – | – | – | – | – | – | –
CCN(CC)Cc1ccc2cccnc2c1O [NSC693872, 7-(N,N-diethylaminomethyl)quinolin-8-ol, reference compound] | 1.9 | 2.6 | 3.1 | 1580 | 7.8 | 92.2 | 4.9 | 7810 | – | not sufficient to influence the resistance of the cells to doxorubicin | 1580 | 1580 | 4.9 | retain a partial selective toxicity | insignificant loss | ~3.90
